Assay results taken from patent US5747336A, “Cloned human genes for muscarinic acetylcholine receptors and cells lines expressing same” (The United States of America as represented by the …, priority 1994, dated 1998).

Columns and labels:
[1] = molecular target: T1, human m2 receptor (Hm2) (Homo sapiens, UniProt P08172)
T1 sequence (P08172 1-466): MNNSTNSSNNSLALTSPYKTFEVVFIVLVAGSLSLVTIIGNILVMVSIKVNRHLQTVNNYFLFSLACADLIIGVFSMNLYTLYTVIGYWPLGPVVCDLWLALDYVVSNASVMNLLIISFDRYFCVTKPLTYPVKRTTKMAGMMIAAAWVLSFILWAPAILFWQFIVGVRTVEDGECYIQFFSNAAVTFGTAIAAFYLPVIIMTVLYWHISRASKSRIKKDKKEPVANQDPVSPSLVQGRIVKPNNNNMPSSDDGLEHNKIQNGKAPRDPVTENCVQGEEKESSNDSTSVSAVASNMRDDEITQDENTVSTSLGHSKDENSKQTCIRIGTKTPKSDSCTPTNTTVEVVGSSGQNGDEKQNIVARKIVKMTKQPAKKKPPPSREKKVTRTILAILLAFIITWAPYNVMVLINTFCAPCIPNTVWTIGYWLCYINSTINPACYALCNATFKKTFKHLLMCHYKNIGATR
Description: (§1) Data from two to four experiments were independently fit by nonlinear regression to a single mass-action binding site. The average values of the parameters derived from the fits and their standard errors are presented. […] Note Rm1 is the rat m1 receptor, not the human m1 receptor.

[2] = molecular target: T2, human m5 receptor (Hm5) (Homo sapiens, UniProt P08912); assay: 3H-NMS binding assay (direct and inhibition), membranes of transfected CHO cells, Hm5
T2 construct: expressed in transfected cells
T2 sequence (P08912 1-532): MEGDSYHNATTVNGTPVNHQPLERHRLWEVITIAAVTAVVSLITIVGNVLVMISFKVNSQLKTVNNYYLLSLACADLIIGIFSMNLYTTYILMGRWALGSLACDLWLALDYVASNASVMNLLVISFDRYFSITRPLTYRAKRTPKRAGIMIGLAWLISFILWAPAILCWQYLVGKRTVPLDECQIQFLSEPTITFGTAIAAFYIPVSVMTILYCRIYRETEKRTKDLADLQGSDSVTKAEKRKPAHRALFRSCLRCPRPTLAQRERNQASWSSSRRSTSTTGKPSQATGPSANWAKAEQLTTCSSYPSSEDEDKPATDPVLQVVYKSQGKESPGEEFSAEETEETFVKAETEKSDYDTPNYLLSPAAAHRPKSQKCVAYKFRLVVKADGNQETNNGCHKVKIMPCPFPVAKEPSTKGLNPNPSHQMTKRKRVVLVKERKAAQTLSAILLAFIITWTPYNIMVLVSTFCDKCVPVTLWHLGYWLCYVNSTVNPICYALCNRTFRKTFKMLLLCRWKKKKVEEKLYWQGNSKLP
Description: Cells were seeded into six well plates at a density of 10^5 cells/well in growth medium consisting of Minimum Eagle's, Medium supplemented with 10% fetal calf serum (Gibco) and 1000 U each of penicillin G and streptomycin and 4 mM glutamine (Whitaker M.A Bioproducts). Except for the overnight (10-16 hours) transfection (see below) cells were incubated in a humidified incubator at 37° C. and 5% CO2. […] Cells were transferred to a humidified incubator at 35° C. and 3% CO2 and incubated overnight (10-16 hours). […] At the end of selection, transfected cells were harvested and plated at limiting dilution into 96-well plates.
Transfected cells were grown to confluence, washed and scraped into cold binding buffer and homogenized for 30 seconds in a Tekmar Tissumizer (setting 50). Membranes were pelleted at 14,000 g, rehomogenized and the membrane protein determined using a Biorad Protein assay dye reagent. Membrane concentration was adjusted to 1mg protein/ml and stored frozen at -80° C. prior to use.
All membranes, drugs and radioligands were made up in binding buffer which consisted of 25 mM sodium phosphate (pH 7.4) containing 5 mM magnesium chloride. Assays were conducted in 1 ml total volume. Final membrane protein concentrations were 30 ug/ml (m1), 70 ug/ml (m2), 4 μg/ml (m3), 7 μg/ml (m4), and 3 μg/ml (m5). […] Displaceable binding was assessed in the presence of 1 uM atropine sulphate. Binding was terminated by filtration through a Brandel cell harvester onto Whatman GF/C filters.
Data from two to four experiments were independently fit by nonlinear regression to a single mass-action binding site. […] Note Rm1 is the rat m1 receptor, not the human m1 receptor.

[3] = molecular target: T3, human m4 receptor (Hm4) (Homo sapiens, UniProt P08173); settings: inhibition of 3H-NMS binding
T3 sequence (P08173 1-479): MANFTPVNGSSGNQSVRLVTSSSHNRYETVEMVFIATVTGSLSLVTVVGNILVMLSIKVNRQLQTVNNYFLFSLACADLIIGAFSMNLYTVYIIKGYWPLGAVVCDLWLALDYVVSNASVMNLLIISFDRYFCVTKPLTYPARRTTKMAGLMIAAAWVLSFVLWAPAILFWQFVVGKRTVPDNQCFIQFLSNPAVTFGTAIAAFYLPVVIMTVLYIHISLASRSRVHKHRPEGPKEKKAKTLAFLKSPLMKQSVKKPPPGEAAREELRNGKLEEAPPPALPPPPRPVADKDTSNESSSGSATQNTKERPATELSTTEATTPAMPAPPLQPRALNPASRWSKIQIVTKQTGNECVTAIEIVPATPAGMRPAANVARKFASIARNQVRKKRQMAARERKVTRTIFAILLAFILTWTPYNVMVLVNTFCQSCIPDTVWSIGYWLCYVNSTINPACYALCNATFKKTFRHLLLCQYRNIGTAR

[4] = molecular target: T4, human m3 receptor (Hm3) (Homo sapiens, UniProt P20309); assay: biochemical
T4 sequence (P20309 whole entry): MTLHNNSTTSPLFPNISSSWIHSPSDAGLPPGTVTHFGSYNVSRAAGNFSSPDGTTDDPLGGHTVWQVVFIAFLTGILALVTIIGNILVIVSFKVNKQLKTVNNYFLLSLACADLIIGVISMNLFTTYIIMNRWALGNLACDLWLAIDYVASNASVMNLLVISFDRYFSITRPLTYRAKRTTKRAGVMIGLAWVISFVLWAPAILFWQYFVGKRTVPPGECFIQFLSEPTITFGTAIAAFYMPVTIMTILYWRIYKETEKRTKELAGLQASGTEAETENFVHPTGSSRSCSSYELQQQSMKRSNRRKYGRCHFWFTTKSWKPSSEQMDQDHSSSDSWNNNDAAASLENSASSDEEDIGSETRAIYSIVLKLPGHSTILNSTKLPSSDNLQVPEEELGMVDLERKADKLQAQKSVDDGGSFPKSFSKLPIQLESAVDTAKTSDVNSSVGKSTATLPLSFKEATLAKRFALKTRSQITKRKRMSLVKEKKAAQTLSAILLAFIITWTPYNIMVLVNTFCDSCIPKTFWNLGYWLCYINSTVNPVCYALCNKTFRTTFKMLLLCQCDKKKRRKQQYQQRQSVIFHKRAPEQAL
Description: (§2) All membranes, drugs and radioligands were made up in binding buffer which consisted of 25 mM sodium phosphate (pH 7.4) containing 5 mM magnesium chloride. Assays were conducted in 1 ml total volume. Final membrane protein concentrations were 30 ug/ml (m1), 70 ug/ml (m2), 4 μg/ml (m3), 7 μg/ml (m4), and 3 μg/ml (m5). […] Displaceable binding was assessed in the presence of 1 uM atropine sulphate. […]

[5] = molecular target: T5, rat m1 receptor (Rm1) (Rattus norvegicus, UniProt P08482); settings: inhibition of 3H-NMS binding
T5 sequence (P08482 1-460): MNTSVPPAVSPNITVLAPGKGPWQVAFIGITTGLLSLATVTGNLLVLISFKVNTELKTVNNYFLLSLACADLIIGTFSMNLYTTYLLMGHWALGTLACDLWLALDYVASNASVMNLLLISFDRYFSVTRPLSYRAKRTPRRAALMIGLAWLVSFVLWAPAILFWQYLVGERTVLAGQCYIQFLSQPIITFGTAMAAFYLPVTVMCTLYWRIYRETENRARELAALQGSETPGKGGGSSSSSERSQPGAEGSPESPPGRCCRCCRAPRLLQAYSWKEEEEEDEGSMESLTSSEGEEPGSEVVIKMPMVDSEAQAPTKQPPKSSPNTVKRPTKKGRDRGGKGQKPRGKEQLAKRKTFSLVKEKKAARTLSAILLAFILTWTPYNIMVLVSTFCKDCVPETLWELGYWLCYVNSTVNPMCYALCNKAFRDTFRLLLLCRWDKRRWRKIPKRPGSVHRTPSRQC
Description: as §2

[6] = molecular target: T1, human m2 receptor (Hm2); assay: biochemical
Description: as §1

[7] = molecular target: T3, human m4 receptor (Hm4); assay: biochemical
[8] = molecular target: T4, human m3 receptor (Hm3)
Description: as §2

[9] = molecular target: T5, rat m1 receptor (Rm1); assay: biochemical
Description: as §2

Compound | Bmax ([1]; Hm2 in CHO cell membranes, direct binding of 3H-NMS) [fmol/mg protein] | Bmax ([2]; Hm5 in CHO cell membranes, direct binding of 3H-NMS) [fmol/mg protein] | Ki ([3]; Hm4) [nM] | average Hill number (H) ([3]; m4, fit to single mass action binding site with variable Hill number) | IC50 [4] [nM] | Ki ([1]; Hm2, inhibition of 3H-NMS binding) [nM] | Ki [5] [nM] | IC50 [6] [nM] | IC50 [7] [nM] | IC50 [2] [nM] | Ki ([2]; Hm5, inhibition of 3H-NMS binding) [nM] | Ki [8] [nM] | IC50 [9] [nM]
C[N+]1(C)C2CC(OC(=O)C(CO)c3ccccc3)CC1C1OC12 (single isomer, unassigned) [^3 H-NMS, N-methylscopolamine] | 121 ± 63 | 2236 ± 590 | – | – | – | – | – | – | – | – | – | – | –
CCN(CC)CC1CCCCN1CC(=O)N1c2ccccc2C(=O)Nc2cccnc21 (stereo not shown) [AF-DX 116] | – | – | 450 | 0.79±0.03 | 3100 ± 400 | 260 | 1300 | 360 ± 230 | 1800 ± 300 | 6800 ± 900 | 2800 | 820 | 4300 ± 1200
